In this assay the test system is GluN1/GluN2A or GluN1/GluN2B NMDARs with or without α2δ-1 in HEK293 cells. Put plainly: Whole-cell recording of NMDAR currents in HEK293 cells. The assay is classed as cell-based, rat. Set-up: α2δ-1 co-expression-induced increase in the NMDAR current density / NMDAR currents in cells expressing GluN1/GluN2A or GluN1/GluN2B alone: dose or concentration left out as unconfirmed. The source says: Cell culture and transfection: HEK293 cells (American Type Culture Collection, Manassas, Va.) were maintained in Dulbecco's modified Eagle medium (DMEM) (#10-017-CV, Corning, Manassas, Va.) supplemented with 10% fetal bovine serum (#F4135, Sigma-Aldrich) and penicillin/streptomycin (#30-002-CI, Corning). Cells were passaged after they reached a confluence of 80-90%, approximately every 2 days. HEK293 cells were transfected using PolyJet reagents (#SL100688, SignaGen Laboratories, Gaithersburg, Md.) at a GluN1/GluN2/α2δ-1 ratio of 1:3:1 (the DNA:PolyJet ratio was 1:3).
Whole-cell recording of NMDAR currents in HEK293 cells: Whole-cell recording was performed using a fire-polished pipette (3-5 MΩ) pulled from borosilicate glass and filled with an intracellular solution containing (in mM) 135 CsF, 2 MgCl2, 0.5 CaCl2, 5 EGTA, 2 Mg-ATP and 10 HEPES (pH, 7.25; 285 mOsmol/L). The extracellular solution contained (in mM) 160 NaCl, 2.5 KCl, 0.2 CaCl2, 10 HEPES, and 10 glucose (pH, 7.35; 300-310 mOsmol/L). Whole-cell currents were recorded with an EPC-10 amplifier (HEKA Instruments, Lambrecht, Germany) at a holding potential of −60 mV. Signals were filtered at 1 kHz, digitized at 10 kHz and acquired using the Pulse program (HEKA Instruments). After the whole-cell configuration was established, the cell membrane capacitance and series resistance were electronically compensated for. Glycine (10 μM) and NMDA (300 μM) were used to elicit NMDAR currents. For voltage-dependent Mg^2+ block experiments, the conductance-voltage relation of NMDARs was assessed when 2 mM MgCl2 was added to the extracellular solution. The sensitivity of NMDARs to Mg^2+ was estimated by fitting current-voltage relationships to a Boltzmann function (Zhou et al., 2012). All HEK293 cell recording experiments were performed at 25° C.

Data on one compound can be found in US11787839B2, “Targeting α2δ-1-bound glutamate receptors for treating diseases and disorders” (Board of Regents, The University of Texas System, priority 2017, dated 2023).

With `NCC1(CC(=O)O)CCCCC1` [gabapentin], the “α2δ-1 co-expression-induced increase in the NMDAR current density” value (HEK293) was “completely reversed”. Moreover, the “NMDAR currents in cells expressing GluN1/GluN2A or GluN1/GluN2B alone” value (HEK293 without α2δ-1) was “had no effect”. Moreover, under “at −40 and −60 mV”, the “α2δ-1-reduced voltage-dependent Mg2+ block of GluN1/GluN2A NMDARs” value is “reversed this effect”.
